Assay results as given in publication PMC10866072, “Design, synthesis, molecular modelling and biological evaluation of novel 6-amino-5-cyano-2-thiopyrimidine derivatives as potent anticancer agents against leukemia and apoptotic inducers” (Journal of Enzyme Inhibition and Medicinal Chemistry, 2024).

What was measured:
MCF7 = type: cell-based; settings: one dose 10^-5 M, 48 h
U251 = type: cell-based; settings: 48 h
KM12 = type: cell-based; settings: one dose 10^-5 M, 48 h
HCT-116 = type: cell-based; settings: one dose 10^-5 M, 48 h
A498 = type: cell-based; settings: one dose 10^-5 M, 48 h
SK-MEL-2 = type: cell-based; settings: one dose 10^-5 M, 48 h
SN12C = type: cell-based, human; settings: one dose 10^-5 M, 48 h
HS 578T = type: cell-based; settings: one dose 10^-5 M, 48 h, HS 578T
NCI-H522 = type: cell-based; settings: one dose 10^-5 M, 48 h
[1] = tested on: full NCI 60 cell lines panel; settings: for activity on all 60 cancer cell lines tested (in words): one dose
Method: 60 different human tumour cell lines-representing leukaemia, melanoma, and malignancies of the lung, colon, brain, ovary, breast, prostate, and kidney are used in the operation of this screen.
Compounds were dissolved in DMSO: glycerol (91) and were kept in a freezer at −70° C. The synthesised compounds were introduced to the culture at a single concentration of 1 0 ^−5 M and left to incubate for 48 h. A protein-binding dye called sulforhodamine B was used to measure end points (SRB).
A mean graph showing the % growth of treated cells is used to represent the one-dose data. The value provided for the One-dose assay represents growth in comparison to the no-drug control and to the number of cells at time zero. This enables the identification of lethality (values between 0 and 100) as well as growth inhibition (values less than 0). A value of 100, for instance, indicates no growth inhibition. A value of 40 would indicate 60% growth inhibition. A value of 0 indicates no net growth over the course of the experiment. A value of −40 would indicate 40% lethality.
Furthermore, the average sensitivity of all cell lines to the compound is termed as the full panel mean graph midpoints (MG-MID). The complete panel mean graph midpoints refers to the average sensitivity of all cell lines to the chemical (MG-MID). A measure of a compound’s selectivity for a given cell line is the ratio created by dividing the full panel mean graph midpoints (MG-MID) concentration by the individual subpanel MG-MID concentrations (obtained as the average sensitivity of all the cell lines in a given subpanel to the test compound).

DU-145 = type: cell-based; settings: one dose 10^-5 M, 48 h
IGROV1 = type: cell-based; settings: 48 h
NCI-H460 = type: cell-based; settings: one dose 10^-5 M, 48 h
OVCAR-5 = type: cell-based; settings: one dose 10^-5 M, 48 h
MDA-MB-435 = type: cell-based; settings: one dose 10^-5 M, 48 h
HCC-2998 = type: cell-based; settings: one dose 10^-5 M, 48 h
K-562 = type: cell-based; settings: 48 h
A549/ATCC = type: cell-based; settings: one dose 10^-5 M, 48 h
SK-MEL-5 = type: cell-based; settings: one dose 10^-5 M, 48 h
SF-268 = type: cell-based; settings: one dose 10^-5 M, 48 h
MDA-MB-468 = type: cell-based; settings: one dose 10^-5 M, 48 h
EKVX = type: cell-based; settings: one dose 10^-5 M, 48 h
HL-60(TB) = type: cell-based; settings: one dose 10^-5 M, 48 h
HT29 = type: cell-based; settings: 48 h
OVCAR-3 = type: cell-based; settings: one dose 10^-5 M, 48 h
T-47D = type: cell-based; settings: one dose 10^-5 M, 48 h
MDA-MB-231/ATCC = type: cell-based; settings: one dose 10^-5 M, 48 h
UACC-257 = type: cell-based; settings: one dose 10^-5 M, 48 h
CAKI-1 = type: cell-based; settings: one dose 10^-5 M, 48 h
MOLT-4 = type: cell-based; settings: one dose 10^-5 M, 48 h
HOP-62 = type: cell-based; settings: one dose 10^-5 M, 48 h
MALME-3M = type: cell-based; settings: one dose 10^-5 M, 48 h
SK-OV-3 = type: cell-based; settings: one dose 10^-5 M, 48 h
CCRF-CEM = type: cell-based; settings: one dose 10^-5 M, 48 h
UO-31 = type: cell-based; settings: one dose 10^-5 M, 48 h
RXF 393 = type: cell-based; settings: one dose 10^-5 M, 48 h
OVCAR-4 = type: cell-based; settings: one dose 10^-5 M, 48 h
M14 = type: cell-based; settings: one dose 10^-5 M, 48 h
UACC-62 = type: cell-based; settings: one dose 10^-5 M, 48 h
786-0 = type: cell-based; settings: one dose 10^-5 M, 48 h
LOX IMVI = type: cell-based; settings: one dose 10^-5 M, 48 h
SR = type: cell-based; settings: one dose 10^-5 M, 48 h
SF-539 = type: cell-based; settings: one dose 10^-5 M, 48 h
NCI-H23 = type: cell-based; settings: one dose 10^-5 M, 48 h
SNB-75 = type: cell-based; settings: one dose 10^-5 M, 48 h
ACHN = type: cell-based; settings: one dose 10^-5 M, 48 h
SF-295 = type: cell-based; settings: one dose 10^-5 M, 48 h
PC-3 = type: cell-based; settings: one dose 10^-5 M, 48 h
RPMI-8226 = type: cell-based; settings: one dose 10^-5 M, 48 h
HCT-15 = type: cell-based; settings: one dose 10^-5 M, 48 h
OVCAR-8 = type: cell-based; settings: one dose 10^-5 M, 48 h
SNB-19 = type: cell-based; settings: one dose 10^-5 M, 48 h
HOP-92 = type: cell-based; settings: one dose 10^-5 M, 48 h
SW-620 = type: cell-based; settings: one dose 10^-5 M, 48 h
NCI-H226 = type: cell-based; settings: one dose 10^-5 M, 48 h
TK-10 = type: cell-based; settings: one dose 10^-5 M, 48 h
SK-MEL-28 = type: cell-based; settings: one dose 10^-5 M, 48 h
[2] = Homo sapiens, read-out: % growth

N=C(NN=Cc1ccc(Cl)cc1)c1c(N)nc(S)nc1-c1ccc(Cl)cc1 [Compound 4h, 4-amino-6–(4-chlorophenyl)-N'-[(4-chlorophenyl)methylene]-2-mercapto pyrimidine-5-carboximidohydrazide]
activity at 10 µM (MCF7; [2]): 76.6% | % growth at 10 µM (U251; Homo sapiens, U-251, one dose 10^-5 M): 94% | % growth at 10 µM (KM12; Homo sapiens): 91.9% | activity at 10 µM (HCT-116; [2]): 86% | % growth at 10 µM (A498; Homo sapiens): 102% | % growth at 10 µM (SK-MEL-2; Homo sapiens): 101% | % growth at 10 µM (SN12C; Homo sapiens): 91.8% | activity at 10 µM (HS 578T; [2]): 93% | % growth at 10 µM (NCI-H522; Homo sapiens): 85.4% | activity at 10 µM ([1]; Homo sapiens, 60 cell, 48 h, read-out: Mean % growth): 91% | activity on all 60 cancer cell lines tested (in words) [1]: weak activity | % growth at 10 µM (DU-145; Homo sapiens): 108% | activity at 10 µM (IGROV1; Homo sapiens, IGROV-1, one dose 10^-5 M, read-out: % growth): 78.8% | activity at 10 µM (NCI-H460; [2]): 93.7% | percent cell growth at 10 µM (OVCAR-5; Homo sapiens): 95.4% | activity at 10 µM (MDA-MB-435; [2]): 98.8% | % growth at 10 µM (HCC-2998; Homo sapiens): 103% | % growth at 10 µM (K-562; Homo sapiens, K562, one dose 10^-5 M): 86% | % growth at 10 µM (A549/ATCC; Homo sapiens): 93.1% | activity at 10 µM (SK-MEL-5; [2]): 97.3% | activity at 10 µM (SF-268; [2]): 96% | percent cell growth at 10 µM (MDA-MB-468; Homo sapiens): 99.3% | % cell growth at 10 µM (EKVX; Homo sapiens): 75% | % growth at 10 µM (HL-60(TB); Homo sapiens): 101% | % growth at 10 µM (HT29; Homo sapiens, HT-29, one dose 10^-5 M): 99% | % growth at 10 µM (OVCAR-3; Homo sapiens): 107% | activity at 10 µM (T-47D; Homo sapiens, T47D, read-out: % growth): 72.1% | % growth at 10 µM (MDA-MB-231/ATCC; Homo sapiens): 69.7% | percent cell growth at 10 µM (UACC-257; Homo sapiens): 101% | % growth at 10 µM (CAKI-1; Homo sapiens, CAKI-1, 48 h): 79.4% | activity at 10 µM (MOLT-4; [2]): 85.8% | % growth at 10 µM (HOP-62; Homo sapiens): 95.6% | % growth at 10 µM (MALME-3M; Homo sapiens): 107% | % growth at 10 µM (SK-OV-3; Homo sapiens): 77.5% | % cell growth at 10 µM (CCRF-CEM; Homo sapiens): 75.5% | % cell growth at 10 µM (UO-31; Homo sapiens, UO-31, 48 h): 66.3% | activity at 10 µM (RXF 393; Homo sapiens, RXF 393, 48 h, read-out: % growth): 103% | % growth at 10 µM (OVCAR-4; Homo sapiens): 83.1% | % growth at 10 µM (M14; Homo sapiens): 104% | % growth at 10 µM (UACC-62; Homo sapiens): 81.8% | % growth at 10 µM (786-0; Homo sapiens): 98.5% | activity at 10 µM (LOX IMVI; [2]): 94.3% | percent cell growth at 10 µM (SR; Homo sapiens): 86.8% | % growth at 10 µM (SF-539; Homo sapiens): 80.4% | activity at 10 µM (NCI-H23; [2]): 93.7% | % growth at 10 µM (SNB-75; Homo sapiens): 83.5% | % growth at 10 µM (ACHN; Homo sapiens): 77.2% | % cell growth at 10 µM (SF-295; Homo sapiens): 90.2% | percent cell growth at 10 µM (PC-3; Homo sapiens): 79.6% | % growth at 10 µM (RPMI-8226; Homo sapiens): 83.8% | activity at 10 µM (HCT-15; [2]): 90.4% | % growth of cells at 10 µM (OVCAR-8; Homo sapiens): 94.8% | activity at 10 µM (SNB-19; [2]): 87.5% | % growth at 10 µM (HOP-92; Homo sapiens): 84.2% | % growth at 10 µM (SW-620; Homo sapiens): 103% | % growth at 10 µM (NCI-H226; Homo sapiens): 99% | % cell growth at 10 µM (TK-10; Homo sapiens): 122% | % cell growth at 10 µM (SK-MEL-28; Homo sapiens): 100%

4-Amino-6–(4-chlorophenyl)-2-mercaptopyrimidine-5-carboximidohydrazide [Compound 2b]
% growth (MCF7): 98.64% | % growth (U251; one dose 10^-5 M): 105.90% | % growth (KM12): 100.03% | % growth (HCT-116): 119.61% | % growth (A498): 116.23% | % growth (SK-MEL-2): 109.65% | % growth (SN12C): 99.89% | % growth (HS 578T): 128.54% | % growth (NCI-H522): 98.92% | activity on all 60 cancer cell lines tested (in words) [1]: weak activity | Mean % growth ([1]; one dose 10^-5 M, 48 h, mean over all cell lines): 105.07% | % growth (DU-145): 106.23% | % growth (IGROV1; one dose 10^-5 M): 103.95% | % growth (NCI-H460): 107.93% | % growth (OVCAR-5): 103.26% | % growth (MDA-MB-435): 96.65% | % growth (HCC-2998): 105.50% | % growth (K-562; one dose 10^-5 M): 98.62% | % growth (A549/ATCC): 110.21% | % growth (SK-MEL-5): 100.02% | % growth (SF-268): 108.46% | % growth (MDA-MB-468): 102.27% | % growth (EKVX): 100.22% | % growth (HL-60(TB)): 98.64% | % growth (HT29; one dose 10^-5 M): 98.85% | % growth (OVCAR-3): 112.26% | % growth (T-47D): 96.25% | % growth (MDA-MB-231/ATCC): 100.62% | % growth (UACC-257): 114.55% | % growth (CAKI-1): 99.31% | % growth (MOLT-4): 99.19% | % growth (HOP-62): 113.92% | % growth (MALME-3M): 109.72% | % growth (SK-OV-3): 123.58% | % growth (CCRF-CEM): 100.09% | % growth (UO-31): 93.82% | % growth (RXF 393): 119.00% | % growth (OVCAR-4): 103.90% | % growth (M14): 111.66% | % growth (UACC-62): 100.76% | % growth (786-0): 99.27% | % growth (LOX IMVI): 109.11% | % growth (SR): 81.00% | % growth (SF-539): 103.32% | % growth (NCI-H23): 107.36% | % growth (SNB-75): 99.29% | % growth (ACHN): 102.02% | % growth (SF-295): 93.17% | % growth (PC-3): 111.23% | % growth (RPMI-8226): 94.54% | % growth (HCT-15): 103.81% | % growth (OVCAR-8): 110.09% | % growth (SNB-19): 98.41% | % growth (HOP-92): 107.66% | % growth (SW-620): 103.87% | % growth (NCI-H226): 121.25% | % growth (TK-10): 113.67% | % growth (SK-MEL-28): 108.56%
